Experimental data published in patent US20260273007A1, “FEED ADDITIVE FOR IMPROVING PERFORMANCE OF FARMING ANIMALS” (Nutreco IP Assets B.V., priority 2023, published 2026).

Experiments:
[1] = tested on: E. maxima; assay: E. maxima infection of chickens: performance and fecal oocyst shedding (Example 8); format: in vivo; details: E. maxima-infected chickens, 90 mg/kg feed of monensin
Source text: Newly hatched chickens from Longnecker's hatchery, Elizabethtown, PA were housed in a Petersime brooder units and provided with feed and water ad libitum. All chickens were weighed and allocated to a cage. Per treatment, 60 chickens (5 birds/cage=12 replication) were used. Initial body weight was the same among treatments. For E. maxima infection freshly propagated E. maxima (ARS strain) were used to infect the birds. On d 14 after hatch, the birds were infected with 10,000 E. maxima oocysts through oral gavage. The experimental treatments were the following: [1]=Negative control (NC), non infected and untreated chicken; [2]=Positive control (PC)=[1]+infection; […] [4]=[2]+55 ppm of dried Glycyrrhiza glabra leaves; [5]=[2]+160 ppm of dried Glycyrrhiza glabra leaves. Monensin is the current standard used to control coccidiosis. […] Oocyst shedding: Faeces from each group was collected separately from 6-8 days post infection (dpi) for coccidiosis. To count coccidia oocysts, various dilutions were made initially to determine the optimum dilutions for enumeration of oocysts for each sample. Oocysts were counted microscopically using a McMaster counting chamber using a sodium chloride flotation method. The total number of oocysts shed per chicken were calculated using the formula: total oocysts/bird=(oocyst count×dilution factor×fecal sample volume/counting chamber volume)/number of birds per cage.

[2] = tested on: Alpha mouse liver 12 cells (AML12); format: cell-based

`CC[C@@]1([C@@H]2O[C@@H]([C@H]3O[C@@](O)(CO)[C@H](C)C[C@@H]3C)C[C@@H]2C)CC[C@H]([C@]2(C)CC[C@]3(C[C@H](O)[C@@H](C)[C@@H]([C@@H](C)[C@@H](OC)[C@H](C)C(=O)O)O3)O2)O1` [MO, monensin] was tested, and the “ADFI d 15 to 19 (0 to 4 dpi)” value [1] was 90 g, the “ADFI d 15 to 21 (0 to 6 dpi)” value [1] was 93.5 g and the “ADFI d 15 to 23 (0 to 8 dpi)” value [1] was 94.3 g. The “ADG d 15 to 19 (0 to 4 dpi)” value [1] was 76.3 g, the “ADG d 15 to 21 (0 to 6 dpi)” value [1] was 72.9 g and the “ADG d 15 to 23 (0 to 8 dpi)” value [1] was 79.3 g. The “BW d 19 (4 dpi)” value [1] was 890 g, the “BW d 21 (6 dpi)” value [1] was 1,023 g and the “BW d 23 (8 dpi)” value [1] was 1,220 g. For the same compound, the “FCR d 15 to 19 (0 to 4 dpi)” value [1] was 1.191, the “FCR d 15 to 21 (0 to 6 dpi)” value [1] was 1.31 and the “FCR d 15 to 23 (0 to 8 dpi)” value [1] was 1.21. The Lesion score [1] was “reduced” and the “Number of oocysts (fecal oocyst shedding, FIG. 2)” value ([1]; faeces 6-8 dpi) was “reduced”.
With Aflatoxin B1 the “Cell viability (%)” value [2] was 51.8%.
